From PMC12974487, “Inhibition of FicD-mediated AMPylation and deAMPylation by isoprenoid diphosphates” (Proceedings of the National Academy of Sciences of the …, 2026)
“Also recorded” adds a separate entry of the source.

Target: T1, FicD^R374H (Homo sapiens, UniProt Q9BVA6, R374H)
T1 construct: Wild-type FicD (residues 105-458) and all mutants were expressed as N-terminal 6xHis-Sumo fusions; 6xHis-Sumo (N, cleaved yes); made in house; host or cells: Rosetta(DE3) E. coli
T1 sequence (Q9BVA6 105-458 R374H): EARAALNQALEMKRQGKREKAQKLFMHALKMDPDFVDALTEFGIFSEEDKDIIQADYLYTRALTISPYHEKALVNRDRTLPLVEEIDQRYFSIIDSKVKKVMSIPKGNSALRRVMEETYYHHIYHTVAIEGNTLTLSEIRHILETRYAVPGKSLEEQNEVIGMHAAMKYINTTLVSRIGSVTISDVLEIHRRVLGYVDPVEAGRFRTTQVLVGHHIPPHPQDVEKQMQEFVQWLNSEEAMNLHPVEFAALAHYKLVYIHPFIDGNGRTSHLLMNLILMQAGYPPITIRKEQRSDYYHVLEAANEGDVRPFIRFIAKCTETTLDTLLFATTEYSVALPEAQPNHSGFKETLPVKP
Experiment: AMPylation of Δ26hBiP^T229A by pathogenic variant FicD^R374H
Format: biochemical
Settings: indicated concentrations of FPP
From the text: Fig. 5. Crystal structure of FPP inhibitor bound to FicD active site. […] FPP (cyan stick) and Mg^2+ (cyan sphere) in the pocket of FicD shown as APBS electrostatic surface with positive areas in blue, negative in red, and neutral in white (contour level: ±5 kBT/e) (Right). […] (C–E) AMPylation assays of Δ26hBiP^T229A in the presence of the indicated concentration of FPP using the pathogenic human variants (C) FicD^R371S, (D) FicD^R374H and (E) FicD^R374C. AMPylated BiP and Fic were quantified by immunodetection, and total BiP was quantified by CBB. […]
Isothermal Titration Calorimetry
Proteins were dialyzed against 25mM HEPES pH 7.4/100mM KCl/10% glycerol prior to titration.
Dialyzed proteins were then spun down at 21,000G for 15 minutes at 4C to remove trace insoluble material. The protein concentration was measured spectrophotometrically and then diluted to working concentration with 25mM HEPES pH 7.4/100mM KCl/10% glycerol. MgCl2 was added to proteins to a final concentration of 4mM. ITC experiments were performed in a Micro-Cal PEAQ-ITC (Malvern Panalytical, Worcestershire, UK) calorimeter with a stirred 206.2 μL reaction cell held at 20 °C. 250μM FPP was titrated into 25uM Δ104hFicL258D with 750rpm stirring. The first injection was 0.5 μL, followed by twenty 1.9 μL injections. […]
Thermogram and binding figures were plotted in […]

CC(C)=CCC/C(C)=C/CC/C(C)=C/COP(=O)(O)OP(=O)(O)O [FPP, farnesyl-pyrophosphate]
FPP inhibition of FicD^R374H mediated AMPylation: inhibition; also recorded: inhibited
